Values of other authors as cited in patent US7094735B2, “Herbicide microemulsion-forming-concentrates, microemulsions, and methods” (priority 2001, dated 2006).

Details: Table 1, exemplary pKa values of acidic herbicides

First: CCc1cnc(C2=NC(C)(C(C)C)C(=O)N2)c(C(=O)O)c1 (stereo not shown) [Imazethapyr]
Second: O=C(O)c1c(Cl)ccc2cc(Cl)cnc12 [Quinclorac]
The pKas of the first is lower: 3.9 for the first, 4.34 for the second.

First: CC(Oc1ccc(Cl)cc1Cl)C(=O)O (stereo not shown) [Dichlorprop]
Second: CCC/C(=N\OCC)C1=C(O)CC(CC(C)SCC)CC1=O (stereo not shown) [Sethoxydim]
The pKas of the first is lower: 2.86 for the first, 4.16 for the second.

First: Nc1c(Cl)c(Cl)nc(C(=O)O)c1Cl [Picloram]
Second: O=C(O)COc1nc(Cl)c(Cl)cc1Cl [Triclopyr, 3,5,6-trichloro-2-pyridyloxyacetic acid]
The pKas of the first is lower: 2.3 for the first, 2.68 for the second.

Going from COc1c(Cl)ccc(Cl)c1C(=O)O [Dicamba, 3,6-dichloro-O-anisic acid] to O=C(O)CCCOc1ccc(Cl)cc1Cl [2,4-DB], the pKas rises from 1.87 to 4.8.

First: C[C@@H](Oc1ccc(Oc2ccc(C(F)(F)F)cn2)cc1)C(=O)O [Fluazifop-p]
Second: CC(Oc1ccc(Oc2ncc(C(F)(F)F)cc2Cl)cc1)C(=O)O (stereo not shown) [Haloxyfop]
The pKas of the first is lower: 2.98 for the first, 4.33 for the second.

Going from N#Cc1cc(Br)c(O)c(Br)c1 [Bromoxynil] to O=C(O)c1cc(Oc2ccc(C(F)(F)F)cc2Cl)ccc1[N+](=O)[O-] [Acifluorfen], the pKas falls from 4.06 to 3.86.

Compared with CC(C)C1(C)N=C(c2nc3ccccc3cc2C(=O)O)NC1=O (stereo not shown) [Imazaquin], Imazamethbenz is lower in pKas: 3.8 for the first, 2.9 for the second.

First: CC(Oc1ccc(Oc2ccc(Cl)cc2Cl)cc1)C(=O)O (stereo not shown) [Diclofop]
Second: N#Cc1cc(I)c(O)c(I)c1 [Ioxynil]
The pKas of the first is lower: 3.57 for the first, 3.96 for the second.
